The target of series [1] is T1, human P-Selectin-IgG-chimera (Homo sapiens, UniProt P16109).
T1 construct: fused on or other part: human IgG Fc part, fused on as a capture and dimerising handle (captured by goat anti human Fc antibody)
T1 sequence (P16109 42-195 limits assumed): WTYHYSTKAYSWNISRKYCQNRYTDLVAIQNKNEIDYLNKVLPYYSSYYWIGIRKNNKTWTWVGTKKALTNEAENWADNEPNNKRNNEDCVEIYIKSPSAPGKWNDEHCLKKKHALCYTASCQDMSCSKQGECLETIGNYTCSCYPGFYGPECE
In words: Sialyl Lewis^X Tyrosine Sulfate Assay (sLe^X TSA), P-selectin. The conditions noted are these: binding of P-selectin chimera to sLe^X-tyrosine sulfate polyacrylamide. As to the method:
IC50-values are determined.
Microtiter plates are coated overnight in carbonate buffer pH9.6 with goat anti human Fc mAB (10 μg/ml).
After incubation for 2 h at 37° C., wells are washed for six times with in assay buffer incl. 0.005% Polyoxyethylenesorbitan monolaurate (TWEEN 20), developed for 10-15 min with 20 μl 3,3′,5,5′-tetramethylbenzidine (TMB)/H202 substrate solution and stopped with 20 μl 1 M H2SO4.

Series [2] has as its system human P-selectin-IgG chimera. The series can be described thus: Flow chamber assay, attachment of HL-60 cells to P-selectin. The series is classed as cell-based. Set-up: dose or concentration left out as unconfirmed. The conditions noted are these: flow shear 1 dyne/cm^2; after 5 minutes continuous flow. As to the method: (§1) Flow Chamber Assay/Cell Adhesion and Rolling under Flow Conditions
(§2) To assess the capability of compound of formula (I) to inhibit cell binding under dynamic conditions resembling the flow in a blood vessel, flow chamber assays addressing/testing binding of HL-60 cells/various cell lines to P-selectin, and E-selectin chimeric molecules are performed.
(§3) Cell attachment under flow conditions is determined using a parallel flow chamber system. […]
(§4) After washing with assay buffer (“Roswell Park Memorial Institute 1640” (RPMI 1640)+10 mM HEPES) the dish is fitted into a parallel plate laminar flow chamber (sold from Glycotech, Rockville, Md.) and mounted on an inverted phase-contrast microscope (sold from Olympus, Hamburg, Germany) equipped with a CCD camera (JVC) that is connected to a PC. […] The flow rate is then decreased resulting in a calculated flow shear of 1 dyne/cm^2. Video sequences of 10 low power fields are digitally recorded after 5 minutes continuous flow. The percentage of inhibition is calculated from the mean number of cells per field that attached to the coated dish surface in the presence versus absence of compound of formula (I) of at independent experiments. […]

For series [3], the system named is Jurkat T-cells (attachment to E-Selectin). In words: Modulation of T-cells: flow chamber assay with pre-treated Jurkat cells, E-selectin. The series is classed as cell-based. The conditions noted are these: cells pre-incubated 5 minutes with compound, washed twice; flow chamber as Example 2. As to the method:
(§5) Cell attachment under flow conditions is determined using a parallel flow chamber system. A 35 mm polystyrene culture dish is coated for 1 h at room temperature with coating buffer (50 mM tris-(hydroxymethyl) aminomethane buffer (Tris), 150 mM NaCl, 2 mM CaCl2; pH 7.4) containing human E- or P-selectin-IgG chimera at concentrations of […], respectively. After removal of the coating solution non specific binding sites are blocked for an additional hour with 1% BSA in coating buffer at room temperature.
as §4

Series [4] concerns neutrophil infiltration into the peritoneum. The series can be described thus: Thioglycollate-induced peritonitis in mice. It is filed as in vivo. The protocol:
The compound of formula (I) is investigated in a thioglycollate-induced peritonitis model in mice employing standard method (see A. E. R. Hicks et al., J. Leukoc. Biol. 2005, 77, 59-66; M. C. Montesinos et al., Arthritis Res. Ther. 2006, 8(2): R53-R59).
Groups of 10 male mice weighting 24±2 g are used. Peritonitis is induced by intraperitoneal (i.p.) injection of 1 ml 4% thioglycollate medium in 0.9% NaCl to cause neutrophil infiltration into the peritoneum. The compound of formula (I) is dissolved in DMSO, diluted with PBS (phosphate buffered saline) and adjusted to neutral pH with NaOH. The solution of the compound of formula (I) and vehicle is administered intravenously (i.v.) 15 minutes or by oral gavage (p.o.) 60 minutes before thioglycollate medium challenge. The steroid compound Dexamethasone (3 mg/kg, p.o.; known product for rheumatoid arthritis) as the positive control compound is administered by oral gavage 60 minutes before thioglycollate medium challenge.
After 4 hr of induction, neutrophil counts are determined by Automated Hematology Analyzer (provider: Sysmex, XT-2000i equipped with XT-2000iV software) in peritoneal lavage (3 ml PBS) harvested from animals sacrificed by CO2 asphyxiation.
Normal control groups are mock induced by i.p. injection of 0.9% NaCl Inhibition of 30% or more (≧30) in the neutrophil count relative to the vehicle control is considered significant and indicates possible anti-inflammatory activity.
The compound of formula (I) is administered i.v. in different doses, 25 mg/kg, 10 mg/kg, 5 mg/kg, 1 mg/kg, 0.5 mg/kg and 0.25 mg/kg. The compound of formula (I) is also administered p.o. in different doses, 500 mg/kg, 250 mg/kg, 100 mg/kg, 50 mg/kg, 25 mg/kg, 10 mg/kg, 5 mg/kg and 1 mg/kg.

Series [5] relates to human E-selectin-IgG chimera. The series can be described thus: Flow chamber assay, attachment of HL-60 cells to E-selectin. The series is classed as cell-based. Set-up: dose or concentration left out as unconfirmed. The conditions noted are these: flow shear 1 dyne/cm^2; after 5 minutes continuous flow. The protocol:
as §1, §2, §3, §4

Series [6] concerns Jurkat T-cells (attachment to P-Selectin). In words: Modulation of T-cells: flow chamber assay with pre-treated Jurkat cells, P-selectin. The series is classed as cell-based. The conditions noted are these: cells pre-incubated 5 minutes with compound, washed twice; flow chamber as Example 2. As to the method:
as §5, §4

Series [7] has as its target T2, human L-Selectin-IgG-chimera (Homo sapiens, UniProt P14151).
T2 construct: fused on or other part: human IgG Fc part, fused on as a capture and dimerising handle (captured by goat anti human Fc antibody)
T2 sequence (P14151 39-318 limits assumed): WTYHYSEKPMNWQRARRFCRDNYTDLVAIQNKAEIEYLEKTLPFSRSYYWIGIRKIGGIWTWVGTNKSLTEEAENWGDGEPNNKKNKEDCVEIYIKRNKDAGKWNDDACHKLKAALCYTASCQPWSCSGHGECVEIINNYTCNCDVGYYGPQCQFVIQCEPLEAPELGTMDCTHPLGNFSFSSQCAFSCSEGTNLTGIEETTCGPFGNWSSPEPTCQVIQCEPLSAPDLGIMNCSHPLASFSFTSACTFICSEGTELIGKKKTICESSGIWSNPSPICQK
In words: Sialyl Lewis^X Tyrosine Sulfate Assay (sLe^X TSA), L-selectin. The conditions noted are these: binding of L-selectin chimera to sLe^X-tyrosine sulfate polyacrylamide. As to the method:
Sialyl Lewis^X Tyrosine Sulfate Assay (sLe^X TSA):
Compound of formula (I) is assayed on a molecular level for the ability to inhibit the binding of P- and L-selectin chimeric molecules to sLe^X and tyrosinesulfate residues linked to a polymeric matrix as a PSGL-1 substitute. IC50-values are determined.
Microtiter plates are coated overnight in carbonate buffer pH9.6 with goat anti human Fc mAB (10 μg/ml). After washing in assay buffer (25 mM 4-(2-hydroxyethyl)-1-piperazineethanesulfonic acid (HEPES), 150 mM NaCl, 1 mM CaCl2 pH7.4) and blocking (3% bovine serum albumin (BSA) in assay buffer) plates are incubated for 2 h at 37° C. with human P-Selectin-IgG-chimera (0.61 nM respectively 150 ng/mL) or human L-Selectin-IgG-chimera (0.61 nM respectively 89 ng/mL). 5 μl of sLe^X-tyrosine sulfate polyacrylamide (1 mg/ml) carrying 15% sLe^X, 10% Tyrosine-sulfate and 5% biotin is complexed with 20 μl Streptavidin-Peroxidase solution (1 mg/ml) and 25 μl assay buffer without CaCl2. […]
After incubation for 2 h at 37° C., wells are washed for six times with in assay buffer incl. […] Bound sLe^X-Tyrosine sulfate ligand complex is determined by measuring optical density at 450 nm vs. 620 nm in a Fusion alpha-FP reader (sold from Packard Bioscience, Dreieich, Germany). […]

A short description of series [8]: Skin penetration, parallel artificial membrane permeability assay (skin-PAMPA). It is filed as in vitro ADME. As to the method:
To predict passive human skin permeability of compound of formula (I) a parallel artificial membrane permeability assay is performed that mimics the main barrier properties of human stratum corneum (skin-PAMPA).
The filter of the donor compartment of a hydrophobic PVDF 96-well microtiter filter plate (Millipore, Schwalbach, Germany) is coated with a mixture of 70% silicone and 30% isopropyl myristate dissolved in hexane. After evaporation of solvent the donor compartment is filled with buffer (pH 4) containing compound of formula (I) and assembled to the acceptor compartment filled with buffer (pH 4). The assembled plate is incubated at room temperature for 16 hours. Absorbance of compound of formula (I) in the dissembled acceptor compartment is measured with a photometer (Spectramax, Molecular Devices, Sunnyvale, Calif., USA). Permeation (% flux) of compound of formula (I) through the coated filter (artificial membrane) is calculated based on equilibrium absorbance.

pIC50: −log10 of the molar value. Bounds are passed on as bounds.

Take `CCN(CC)C(=O)/C(C#N)=C/c1cc(O)c(O)c([N+](=O)[O-])c1` [compound of formula (I), (2E)-2-cyano-3-(3,4-dihydroxy-5-nitrophenyl)-N,N-diethylacrylamide]: the pIC50 in series [1] is 3.72; in series [7] it was 2.90. For the same molecule, in series [2], the “% inhibition of attachment of HL-60 cells, P-Selectin” value came out at 36%. Also, the “% inhibition of attachment of Jurkat cells (pre-treated), E-Selectin” value in series [3] was found to be 30%. Moreover, in series [4] (depending on the dose), the “inhibition of neutrophil influx compared with dexamethasone (3 mg/kg, p.o.)” value is on record as “comparable or better”. Besides, the “inhibition of neutrophil influx (in words)” value in series [4] (i.v. 0.25-25 mg/kg or p.o. 1-500 mg/kg, inhibition of 30% or more considered significant) was “significant inhibition of neutrophil influx”. Besides, the “inhibition of neutrophil influx (inhibition rate)” value in series [4] (i.v. and p.o. at different doses before thioglycollate, neutrophil count 4 hr after induction) is “more than 30%”. Moreover, in series [5], the “% inhibition of attachment of HL-60 cells, E-Selectin” value turned out to be 30%. Also, the “% inhibition of attachment of Jurkat cells (pre-treated), P-Selectin” value in series [6] stood at 39%. Moreover, the “Permeation (% flux)” value in series [8] (70% silicone / 30% isopropyl myristate membrane, pH 4, room temperature, 16 hours) is listed as above 60%. Moreover, the “skin penetration (in words)” value in series [8] (skin-penetration assay, Example 4) is listed as “high penetration”.

For sialyl Lewis X [sLe^X], in series [7], the pIC50 is below 2.44.

The record behind these values is patent US20100190851A1, “Use of Entacapone in cosmetic, dermatological and pharmaceutical compositions” (priority 2007, published 2010).
